Starred links: 1 amine or outer side, 2 acyl side, 3 side chain; linkers in the order of their positions; H or OH if unused. Positions of bridges follow the written chain, without caps; N, C: chain ends. Non-standard residues stand in square brackets, D forms with d. Residues, ends and D or L forms follow the SMILES beside them. ξ: configuration not given here. *: point of attachment. Ala(benzothiazol-2-yl) = N[C@@H](Cc1nc2ccccc2s1)C(=O)O; X25 = O=C([C@H](Cc1cccc(OCC=[*:3])c1)N[*:1])[*:2]; Trp(5-F) = N[C@@H](Cc1c[nH]c2ccc(F)cc12)C(=O)O; NMePhe(4-F) = CN[C@@H](Cc1ccc(F)cc1)C(=O)O; X3 = O=C(CCSCc1cc(F)cc(CSCCN[*:1])c1)[*:2]; X42 = CN([C@@H](CCC=[*:3])C(=O)[*:2])[*:1]; Phe(4-CN) = N#Cc1ccc(C[C@H](N)C(=O)O)cc1; X4 = O=C(CCSCc1cccc(CSCCN[*:1])c1)[*:2]; mXylylene = c1cc(C[*:1])cc(C[*:2])c1; ξAEF = NCCOc1ccc(CC(N)C(=O)O)cc1; αMeK = C[C@](N)(CCCCN)C(=O)O; αMeP = C[C@@]1(C(=O)O)CCCN1; Aze = O=C(O)[C@@H]1CCN1; Nva = CCC[C@H](N)C(=O)O; OBn = c1ccc(CO*)cc1; Mpa = O=C(O)CCS
These compounds were tested against human PCSK9 / human LDLR EGFa domain interaction (Homo sapiens (Human), UniProt Q8NBP7) (assay: TR-FRET assay of inhibition of the PCSK9-LDLR protein-protein interaction). Settings: TR-FRET, 20 nM human PCSK9, 20 nM human LDLR EGFa domain, 2 hours room temperature; read-out: IC50.
Assay type: binding
In short: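 Compounds in dose-response are mixed with 20 nM human PCSK9 (avitag-biotinylated) and 20 nM his-tagged LDLR EGFa domain, plus 5 nM each streptavidin-Ulight and Eu-anti-6×His. After 2 h at room temperature in HEPES/NaCl/CaCl2 buffer with BSA and P20, TR-FRET is read and IC50 fitted (4-parameter).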

Chain of human PCSK9 / human LDLR EGFa domain interaction (Q8NBP7 153-692): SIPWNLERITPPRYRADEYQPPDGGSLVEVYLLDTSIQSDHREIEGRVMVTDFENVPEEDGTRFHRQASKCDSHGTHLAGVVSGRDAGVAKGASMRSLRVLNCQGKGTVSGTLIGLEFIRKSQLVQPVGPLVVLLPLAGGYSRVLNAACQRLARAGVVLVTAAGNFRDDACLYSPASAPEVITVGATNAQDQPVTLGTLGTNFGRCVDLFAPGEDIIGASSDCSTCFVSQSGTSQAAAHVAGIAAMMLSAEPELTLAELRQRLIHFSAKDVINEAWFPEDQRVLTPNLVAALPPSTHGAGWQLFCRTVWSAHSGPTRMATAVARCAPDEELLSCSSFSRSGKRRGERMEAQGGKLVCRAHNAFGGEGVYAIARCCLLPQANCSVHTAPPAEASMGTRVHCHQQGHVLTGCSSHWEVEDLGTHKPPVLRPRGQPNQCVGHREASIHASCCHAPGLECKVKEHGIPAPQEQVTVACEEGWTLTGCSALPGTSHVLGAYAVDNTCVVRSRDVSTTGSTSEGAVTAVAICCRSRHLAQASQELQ
Chain of human PCSK9 / human LDLR EGFa domain interaction (Q8NBP7 31-152 partner): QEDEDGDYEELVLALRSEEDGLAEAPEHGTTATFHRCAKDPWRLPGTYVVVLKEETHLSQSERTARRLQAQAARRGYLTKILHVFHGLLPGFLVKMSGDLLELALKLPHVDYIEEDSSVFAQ

SMILES	IC50
NCCCC[C@@H]1NC(=O)CCCCCn2cc(nn2)CCC[C@@H](C(N)=O)NC(=O)[C@@H]2CCCN2C(=O)[C@H](Cc2ccc(O)cc2)NC(=O)[C@H](Cc2c[nH]cn2)NC(=O)[C@H](CC(=O)O)NC(=O)[C@H](Cc2c[nH]c3ccc(F)cc23)NC(=O)[C@H](Cc2c[nH]c3ccc(F)cc23)NC(=O)CNC1=O [Compound 154]	1000 to 12100 nM
CCC[C@H](NC(C)=O)C(=O)N[C@@H](Cc1c[nH]cn1)C(=O)N(C)[C@@H](Cc1ccc(F)cc1)C(=O)N[C@H]1CSCc2cccc(c2)CSC[C@@H](C(N)=O)NC(=O)[C@@H]2CCCN2C(=O)[C@H](Cc2ccc(O)cc2)NC(=O)[C@H](Cc2c[nH]cn2)NC(=O)[C@H](CC(=O)O)NC(=O)[C@H](Cc2c[nH]c3ccc(F)cc23)NC(=O)[C@H](Cc2c[nH]c3ccc(F)cc23)NC(=O)CNC(=O)[C@H](CCCCN)NC1=O [Compound 143] (Ac-[Nva]H[NMePhe(4-F)]CKG[Trp(5-F)][Trp(5-F)]DHYPC-NH2; linker 4-13 via mXylylene)	21000 to 50000 nM
COc1ccc(C[C@@H]2NC(=O)[C@H]([C@@H](C)OC)NC(=O)[C@@H]3CC/C=C/COc4cccc(c4)C[C@H](NC(=O)[C@@H](C)NC(=O)[C@H](C)NC(=O)CCSCc4cc(F)cc(c4)CSCCNC(=O)[C@]4(C)CCCN4C2=O)C(=O)N[C@@H](Cc2c[nH]c4ccc(F)cc24)C(=O)N3C)cc1 [Compound 504] (cyclo(A[dA][X25][Trp(5-F)][X42]T(Me)Y(Me)[αMeP][X3]); staple (E) 3-5)	100 to 1000 nM
C[C@@]1(CCCCN)NC(=O)CCSCc2cccc(c2)CSC[C@@H](C(N)=O)NC(=O)[C@@H]2CCCN2C(=O)[C@H](Cc2ccc(O)cc2)NC(=O)[C@H](Cc2c[nH]cn2)NC(=O)[C@H](CC(=O)O)NC(=O)[C@H](Cc2c[nH]c3ccc(F)cc23)NC(=O)[C@H](Cc2c[nH]c3ccc(F)cc23)NC(=O)CNC1=O [Compound 214] ([Mpa][αMeK]G[Trp(5-F)][Trp(5-F)]DHYPC-NH2; linker 1-10 via mXylylene)	1000 to 12100 nM
NCCCC[C@@H]1NC(=O)CCSCc2cccc(c2)CSC[C@@H](C(N)=O)NC(=O)[C@@H]2CCCN2C(=O)[C@H](Cc2nc3ccccc3s2)NC(=O)[C@H](Cc2c[nH]cn2)NC(=O)[C@H](CC(=O)O)NC(=O)[C@H](Cc2c[nH]c3ccc(F)cc23)NC(=O)[C@H](Cc2c[nH]c3ccc(F)cc23)NC(=O)CNC1=O [Compound 266] ([Mpa]KG[Trp(5-F)][Trp(5-F)]DH[Ala(benzothiazol-2-yl)]PC-NH2; linker 1-10 via mXylylene)	21000 to 50000 nM
CC(=O)N[C@@H](Cc1cnc[nH]1)C(=O)N(C)[C@@H](Cc1ccc(F)cc1)C(=O)N[C@H]1CSCc2cccc(c2)CSC[C@@H](C(N)=O)NC(=O)[C@@H]2CCCN2C(=O)[C@H](Cc2ccc(O)cc2)NC(=O)[C@H](Cc2cnc[nH]2)NC(=O)[C@H](CC(=O)O)NC(=O)[C@H](Cc2c[nH]c3ccc(F)cc23)NC(=O)[C@H](Cc2c[nH]c3ccc(F)cc23)NC(=O)CNC(=O)[C@H](CCCCN)NC1=O [Compound 146] (Ac-H[NMePhe(4-F)]CKG[Trp(5-F)][Trp(5-F)]DHYPC-NH2; linker 3-12 via mXylylene)	0.1 to 100 nM
NCCCC[C@@H]1NC(=O)CCSCc2cccc(c2)CSC[C@@H](C(N)=O)NC(=O)[C@@H]2CCN2C(=O)[C@H](Cc2ccc(O)cc2)NC(=O)[C@H](Cc2cnc[nH]2)NC(=O)[C@H](CC(=O)O)NC(=O)[C@H](Cc2c[nH]c3ccc(F)cc23)NC(=O)[C@H](Cc2c[nH]c3ccc(F)cc23)NC(=O)CNC1=O [Compound 207] ([Mpa]KG[Trp(5-F)][Trp(5-F)]DHY[Aze]C-NH2; linker 1-10 via mXylylene)	21000 to 50000 nM
CC(=O)N(C)[C@@H](Cc1ccc(F)cc1)C(=O)N[C@H]1CSCc2cccc(c2)CSC[C@@H](C(N)=O)NC(=O)[C@@H]2CCCN2C(=O)[C@H](Cc2ccc(O)cc2)NC(=O)[C@H](Cc2cnc[nH]2)NC(=O)[C@H](CC(=O)O)NC(=O)[C@H](Cc2c[nH]c3ccc(F)cc23)NC(=O)[C@H](Cc2c[nH]c3ccc(F)cc23)NC(=O)CNC(=O)[C@H](CCCCN)NC1=O [Compound 147] (Ac-[NMePhe(4-F)]CKG[Trp(5-F)][Trp(5-F)]DHYPC-NH2; linker 2-11 via mXylylene)	100 to 1000 nM
C[C@H]1NC(=O)[C@H](CCCCN)NC(=O)CCSCc2cccc(c2)CSCCNC(=O)[C@]2(C)CCCN2C(=O)[C@H](Cc2ccc(C#N)cc2)NC(=O)[C@H](Cc2c[nH]cn2)NC(=O)[C@H](CC(=O)O)NC(=O)[C@H](Cc2c[nH]c3ccc(F)cc23)NC(=O)[C@H](Cc2c[nH]c3ccc(F)cc23)NC1=O [Compound 300] (cyclo(DH[Phe(4-CN)][αMeP][X4]K[dA][Trp(5-F)][Trp(5-F)]))	100 to 1000 nM
CC(=O)N[C@@H]1CC(=O)NCCOc2ccc(cc2)CC(C(N)=O)NC(=O)[C@]2(C)CCCN2C(=O)[C@H](Cc2ccc(O)cc2)NC(=O)[C@H](Cc2cnc[nH]2)NC(=O)[C@H](CC(=O)OCc2ccccc2)NC(=O)[C@H](Cc2c[nH]c3ccc(F)cc23)NC(=O)[C@H](Cc2c[nH]c3ccc(F)cc23)NC(=O)CNC1=O (stereo partly shown) [Compound 321] (Ac-[dD]G[Trp(5-F)][Trp(5-F)]D(OBn)HY[αMeP][ξAEF]-NH2; lactam 1-9)	100 to 1000 nM
